“And” between values parts separate entries of the source, which are not always exact repeats. Equal entries are not always repeated. Structures can show the parent of a compound that is named as a salt.
Assay: iontophoretic transdermal delivery of Tapentadol hydrochloride, 8 hours of iontophoresis (example 1a), side-bi-side diffusion cells, constant current 0.25 mA (0.4 mA/cm2), donor 100 mM in water
Assay type: in vitro ADME, pig
Settings: for drug flux across the skin, Mean ± SD / drug flux across the skin, as tapentadol base, Mean ± SD / cumulative, iontophoretic delivery across the skin, Mean ± SD / cumulative, iontophoretic delivery across the skin, as tapentadol base, Mean ± SD: n=6; for drug flux across the skin, Mean ± SD / drug flux across the skin, as tapentadol base, Mean ± SD / cumulative, iontophoretic delivery across the skin, Mean ± SD / cumulative, iontophoretic delivery across the skin, as tapentadol base, Mean ± SD / drug flux across the skin / cumulative, iontophoretic delivery across the skin: patch area 0.64 cm^2; for drug flux across the skin / cumulative, iontophoretic delivery across the skin: single cells 1-6, hydrochloride
Method: Determination of the rate of iontophoretic transdermal delivery of Tapentadol hydrochloride for a period of 8 hours of iontophoresis
Tapentadol hydrochloride (batch no. A0012) was employed. The components of the phosphate buffered saline (PBS) and the mobile phase used were from Sigma, UK. The pig skin was obtained from a local farm, washed with water, excess hair was carefully trimmed with scissors, and the skin was dermatomed using a Zimmer dermatome set at a nominal thickness of 750 μm. The skin was then stored at −20° C.
The drug was delivered from the anode, using side-bi-side (horizontal) glass diffusion cells (n=6) supplied by Permegear, USA. The porcine skin membrane was excised from the dorsal surface.
Electrodes were prepared in-house and were made of silver/silver chloride. To pass current for 24 hours in this set-up, it was necessary for the donor compartment to contain 76 mM chloride ions.
The anode was placed in the donor chamber; the donor solution was 3 ml of Tapentadol hydrochloride (100 mM, i.e. 25.78 mg/ml of Tapentadol hydrochloride, 22.13 mg/ml of base) in water. The cathode was placed in the receptor chamber, which contained 3 ml of phosphate-buffered saline, pH 7.4. Both chambers were stirred by magnets.
Current was applied for a total of 8 or 24 hours, respectively.
The receptor solution was sampled and assayed at 0.5, 1, 2, 3, 4, 5, 6, 7, 8 (example 1a) and optionally 24 hours (example 1b) post-initiation of the current. During the 8 hour experiment (example 1a), at 0.5, 1, 2, and 3 hours, 1 ml of receptor solution was removed and replaced with fresh PBS. As it was clear that the amount of Tapentadol in the receptor solution was sufficient for quantitation by HPLC, at the subsequent sampling times of 4, 5, 6, 7 and 8 hours, the entire receptor solution (3 ml) was removed and replaced with fresh PBS, to ensure sink conditions in the receptor. During the 24 hour experiment (example 1b), the entire receptor solution (3 ml) was removed and replaced with fresh PBS at every sampling point.
The concentrations of Tapentadol hydrochloride in the receptor chamber samples were determined by HPLC. A mobile phase consisting of 300:700:1 methanol:water:phosphoric acid was pumped (1 ml/min) through a Acclaim RP-18 (4×150 mm) reverse-phase column (Dionex, UK) at 35° C. Tapentadol concentrations were quantified via their UV absorbance at 215 nm using a calibration curve diluted in PBS at pH 7.4. Injection volume was 20 μl and the retention time for Tapentadol hydrochloride was 12 minutes and the total run time was 16 minutes.
A Tapentadol-free “blank” diffusion cell (donor was saline only) was also prepared and the receptor solution was analysed after 8 hours to confirm no peaks from any component of the skin co-eluted with the Tapentadol hydrochloride.
Voltages were as expected for 6 cells in series (range was 6 to 28 volts). The pH of the donor solution was measured after termination of 24 hours of iontophoresis, and ranged from 6.47 to 6.99. The pH of drug in the donor prior to commencing the experiment was 5.07 (5.34 for the 8 hour iontophoresis).

## CC[C@@H](c1cccc(O)c1)[C@@H](C)CN(C)C [Tapentadol hydrochloride]
0.5 h, iontophoresis
  drug flux across the skin, Mean ± SD: 8 ± 8 µg/h
  drug flux across the skin, as tapentadol base, Mean ± SD: 7 ± 6 µg/h
0.5 h
  cumulative, iontophoretic delivery across the skin, Mean ± SD: 4 ± 4 µg
  cumulative, iontophoretic delivery across the skin, as tapentadol base, Mean ± SD: 3 ± 3 µg
1 h, iontophoresis
  drug flux across the skin, Mean ± SD: 56 ± 28 µg/h
  drug flux across the skin, as tapentadol base, Mean ± SD: 48 ± 24 µg/h
1 h
  cumulative, iontophoretic delivery across the skin, Mean ± SD: 32 ± 18 µg
  cumulative, iontophoretic delivery across the skin, as tapentadol base, Mean ± SD: 28 ± 15 µg
2 h, iontophoresis
  drug flux across the skin, Mean ± SD: 115 ± 25 µg/h
  drug flux across the skin, as tapentadol base, Mean ± SD: 98 ± 21 µg/h
  drug flux across the skin: 104 µg/h and 162 µg/h and 119 µg/h and 112 µg/h and 90 µg/h and 102 µg/h
2 h
  cumulative, iontophoretic delivery across the skin, Mean ± SD: 147 ± 40 µg
  cumulative, iontophoretic delivery across the skin, as tapentadol base, Mean ± SD: 126 ± 35 µg
  cumulative, iontophoretic delivery across the skin: 216 µg and 173 µg and 128 µg and 127 µg
3 h, iontophoresis
  drug flux across the skin, Mean ± SD: 193 ± 31 µg/h
  drug flux across the skin, as tapentadol base, Mean ± SD: 166 ± 26 µg/h
  drug flux across the skin: 190 µg/h and 201 µg/h and 222 µg/h and 184 µg/h and 139 µg/h and 220 µg/h
3 h
  cumulative, iontophoretic delivery across the skin, Mean ± SD: 340 ± 62 µg
  cumulative, iontophoretic delivery across the skin, as tapentadol base, Mean ± SD: 291 ± 54 µg
  cumulative, iontophoretic delivery across the skin: 321 µg and 417 µg and 396 µg and 312 µg and 244 µg and 347 µg
4 h, iontophoresis
  drug flux across the skin, Mean ± SD: 228 ± 23 µg/h
  drug flux across the skin, as tapentadol base, Mean ± SD: 196 ± 20 µg/h
  drug flux across the skin: 229 µg/h and 257 µg/h and 209 µg/h and 250 µg/h and 196 µg/h
4 h
  cumulative, iontophoretic delivery across the skin, Mean ± SD: 568 ± 68 µg
  cumulative, iontophoretic delivery across the skin, as tapentadol base, Mean ± SD: 487 ± 58 µg
  cumulative, iontophoretic delivery across the skin: 550 µg and 674 µg and 624 µg and 522 µg and 494 µg and 543 µg
5 h, iontophoresis
  drug flux across the skin, Mean ± SD: 246 ± 30 µg/h
  drug flux across the skin, as tapentadol base, Mean ± SD: 211 ± 26 µg/h
  drug flux across the skin: 242 µg/h and 305 µg/h and 234 µg/h and 238 µg/h and 240 µg/h and 217 µg/h
5 h
  cumulative, iontophoretic delivery across the skin, Mean ± SD: 814 ± 92 µg
  cumulative, iontophoretic delivery across the skin, as tapentadol base, Mean ± SD: 699 ± 79 µg
  cumulative, iontophoretic delivery across the skin: 792 µg and 979 µg and 859 µg and 759 µg and 734 µg and 760 µg
6 h, iontophoresis
  drug flux across the skin, Mean ± SD: 244 ± 18 µg/h
  drug flux across the skin, as tapentadol base, Mean ± SD: 209 ± 15 µg/h
  drug flux across the skin: 247 µg/h and 275 µg/h and 245 µg/h and 225 µg/h and 242 µg/h and 228 µg/h
6 h
  cumulative, iontophoretic delivery across the skin, Mean ± SD: 1057 ± 107 µg
  cumulative, iontophoretic delivery across the skin, as tapentadol base, Mean ± SD: 908 ± 92 µg
  cumulative, iontophoretic delivery across the skin: 1040 µg and 1253 µg and 1104 µg and 984 µg and 976 µg and 988 µg
7 h, iontophoresis
  drug flux across the skin, Mean ± SD: 261 ± 26 µg/h
  drug flux across the skin, as tapentadol base, Mean ± SD: 224 ± 22 µg/h
  drug flux across the skin: 264 µg/h and 295 µg/h and 271 µg/h and 260 µg/h and 261 µg/h and 215 µg/h
7 h
  cumulative, iontophoretic delivery across the skin, Mean ± SD: 1319 ± 128 µg
  cumulative, iontophoretic delivery across the skin, as tapentadol base, Mean ± SD: 1132 ± 110 µg
  cumulative, iontophoretic delivery across the skin: 1304 µg and 1548 µg and 1375 µg and 1244 µg and 1237 µg and 1203 µg
8 h, iontophoresis
  drug flux across the skin, Mean ± SD: 260 ± 46 µg/h
  drug flux across the skin, as tapentadol base, Mean ± SD: 224 ± 40 µg/h
  drug flux across the skin: 260 µg/h and 353 µg/h and 241 µg/h and 234 µg/h and 242 µg/h and 232 µg/h
8 h
  cumulative, iontophoretic delivery across the skin, Mean ± SD: 1579 ± 171 µg
  cumulative, iontophoretic delivery across the skin, as tapentadol base, Mean ± SD: 1356 ± 147 µg
  cumulative, iontophoretic delivery across the skin: 1564 µg and 1901 µg and 1616 µg and 1479 µg and 1435 µg
Example 1a, iontophoresis
  time by which steady-state flux appears to have been reached: 5 to 6 h

Reference: US10632195B2, “Pharmaceutical device for electric-field assisted administration of Tapentadol and method of administering Tapentadol with same” (Gruenenthal GmbH, priority 2012, dated 2020)
